Article PMC9501377, “New Diarylamine KV10.1 Inhibitors and Their Anticancer Potential” (Pharmaceutics, 2022)

Target: T1, KV10.1 (Eag1) (Homo sapiens, UniProt O95259)
T1 construct: expressed in transfected cells; host or cells: HEK-293 (stably transfected)
T1 sequence (O95259 1-962 isoform O95259-2): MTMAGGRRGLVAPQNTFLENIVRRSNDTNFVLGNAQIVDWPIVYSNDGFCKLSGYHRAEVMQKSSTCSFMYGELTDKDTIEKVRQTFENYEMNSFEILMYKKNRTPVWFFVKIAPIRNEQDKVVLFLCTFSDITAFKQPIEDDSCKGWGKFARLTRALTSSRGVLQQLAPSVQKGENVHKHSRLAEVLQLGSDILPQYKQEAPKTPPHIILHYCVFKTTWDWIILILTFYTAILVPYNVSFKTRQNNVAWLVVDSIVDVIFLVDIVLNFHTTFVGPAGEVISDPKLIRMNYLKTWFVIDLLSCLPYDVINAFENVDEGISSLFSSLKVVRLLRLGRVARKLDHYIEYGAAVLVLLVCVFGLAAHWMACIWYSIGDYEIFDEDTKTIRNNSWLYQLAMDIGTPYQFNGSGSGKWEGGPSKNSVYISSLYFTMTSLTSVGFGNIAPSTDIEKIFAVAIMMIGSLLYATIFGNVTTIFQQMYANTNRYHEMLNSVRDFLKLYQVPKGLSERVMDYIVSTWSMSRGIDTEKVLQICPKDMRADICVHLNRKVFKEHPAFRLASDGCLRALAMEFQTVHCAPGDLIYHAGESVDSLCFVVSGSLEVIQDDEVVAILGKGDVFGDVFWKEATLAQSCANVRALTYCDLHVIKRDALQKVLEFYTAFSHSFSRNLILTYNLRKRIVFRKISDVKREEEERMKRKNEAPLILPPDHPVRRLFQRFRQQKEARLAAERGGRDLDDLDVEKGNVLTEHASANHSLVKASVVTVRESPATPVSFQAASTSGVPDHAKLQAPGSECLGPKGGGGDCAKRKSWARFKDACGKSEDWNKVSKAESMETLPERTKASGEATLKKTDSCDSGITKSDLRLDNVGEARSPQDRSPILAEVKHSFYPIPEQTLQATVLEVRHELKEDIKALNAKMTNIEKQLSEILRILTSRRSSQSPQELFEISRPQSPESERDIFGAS
Assay: Whole-cell patch-clamp on stably transfected HEK-293 cells expressing KV10.1
Format: cell-based
Settings: 10 μM, HEK-293 cells, patch-clamp, mean ± SEM
Procedure: For whole-cell patch-clamp measurements, stably transfected HEK-293 cells expressing KV10.1 [26, 27, 28] were grown in DMEM with 10% FCS and 300 µg/mL Zeocin on glass coverslips coated with fibronectin. All experiments were conducted at room temperature under perfusion by gravity with extracellular solution (160 mM NaCl, 2.5 mM KCl, 2 mM CaCl2, 1 mM MgCl2, 10 mM Hepes pH 7.4 with NaOH, 8 mM glucose). Pipettes were made from #1 glass capillaries (WPI) and had 1–3 MΩ resistance. The intracellular solution contained 100 mM KCl, 45 mM N-methyl-D-glucamine, 10 mM 1,2-bis(o-aminophenoxy)ethane-N,N,N′,N′-tetraacetic acid (BAPTA), 10 mM Hepes pH 7.35. Stimulation was applied and data were acquired with an EPC10 Plus amplifier (HEKA Elektronik) controlled with Patch Master software. Compounds were applied with an 8-channel fast solution exchanger (ALA). Compounds were prepared to a stock concentration of 10 mM in DMSO. The control solution contained 0.5% DMSO. Stimuli consisted of 500 ms depolarizations to +40 mV.
All electrophysiological data are presented as means ± SEM of n ≥ 3 independent experiments unless otherwise indicated. Oocyte data were analysed using pClamp Clampfit 10.4 (Molecular Devices, Downingtown, PA, USA) and OriginPro 9 (Originlab, Northampton, MA, USA) or GraphPad Prism 8 software (GraphPad Software, Inc., San Diego, CA, USA). Patch-clamp data analysis was performed using FitMaster (HEKA Electronics), IgorPro (Wavemetrics, Inc., Lake Oswego, OR, USA) and GraphPad Prism 9 (GraphPad Software, Inc., San Diego, CA, USA). The Dunnett test and one-way ANOVA were performed to calculate the significance of the induced inhibition compared to the control (p < 0.05).

% of Kv10.1 Inhibition at 10 μM (HEK-293 Cells) | Compound
12.6 ± 6.4% | Methyl 2-((4-(2-hydroxy-3-morpholinopropoxy)phenyl)amino)benzoate [Compound 5e]
inactive | O=[N+]([O-])c1cc(C(F)(F)F)ccc1Nc1ccc(OCc2ccccc2)cc1 [Compound 14, N-(4-(Benzyloxy)phenyl)-2-nitro-4-(trifluoromethyl)aniline]

Same assay, conditions: HEK293; 1 μM, HEK-293 cells, patch-clamp, mean ± SEM

inhibition at 1 µM [%] | Compound
38.2 ± 1.4 | CCN(CC)CCOc1c(Br)cc(Nc2ccc(C(F)(F)F)cc2[N+](=O)[O-])cc1Br [Compound 17b, 3,5-Dibromo-4-(2-(diethylamino)ethoxy)-N-(2-nitro-4-(trifluoromethyl)phenyl)aniline]
66.5 ± 5.5 | CCN(CC)CCOc1c(Cl)cc(Nc2ccc(C(F)(F)F)cc2[N+](=O)[O-])cc1Cl [Compound 17c, 3,5-Dichloro-4-(2-(diethylamino)ethoxy)-N-(2-nitro-4-(trifluoromethyl)phenyl)aniline]
28.4 ± 12.1 | CN(C)CCOc1c(Cl)cc(Nc2ccc(C(F)(F)F)cc2[N+](=O)[O-])cc1Cl [Compound 18c, 3,5-Dichloro-4-(2-(dimethylamino)ethoxy)-N-(2-nitro-4-(trifluoromethyl)phenyl)aniline]
73.5 ± 0.5 | CN(C)CCOc1c(Br)cc(Nc2ccc(C(F)(F)F)cc2[N+](=O)[O-])cc1Br [Compound 18b, 3,5-Dibromo-4-(2-(dimethylamino)ethoxy)-N-(2-nitro-4-(trifluoromethyl)phenyl)aniline]

Same assay, conditions: HEK293; 10 μM, HEK-293 cells, patch-clamp, mean ± SEM

Compound | inhibition at 10 µM [%]
O=[N+]([O-])c1ccc(Nc2ccc(OCC(O)CN3CCOCC3)cc2)c([N+](=O)[O-])c1 (centres unmarked) [Compound 5f, 1-(4-((2,4-Dinitrophenyl)amino)phenoxy)-3-morpholinopropan-2-ol] | 61.7 ± 9.1
O=[N+]([O-])c1cc(C(F)(F)F)ccc1Oc1ccc(OCC(O)CN2CCOCC2)cc1 (centres unmarked) [Compound 5b, 1-Morpholino-3-(4-(2-nitro-4-(trifluoromethyl)phenoxy)phenoxy)propan-2-ol] | 2.9 ± 5.3
COC(=O)c1ccccc1Oc1ccc(OCC(O)CN2CCOCC2)cc1 (centres unmarked) [Compound 5a, Methyl 2-(4-(2-hydroxy-3-morpholinopropoxy)phenoxy)benzoate] | 4.1 ± 2.6
COC(=O)c1cc(C(F)(F)F)ccc1Nc1ccc(OCC(O)CN(C)C)cc1 (centres unmarked) [Compound 6c, Methyl 2-((4-(3-(dimethylamino)-2-hydroxypropoxy)phenyl)amino)-5-(trifluoromethyl)benzoate] | 4.2 ± 5.5
COC(=O)c1ccccc1Nc1ccc(OCC(O)CN2CCOCC2)cc1 (centres unmarked) [Compound 5d, Methyl 2-((4-(2-hydroxy-3-morpholinopropoxy)phenyl)amino)benzoate] | 2.7 ± 1.2
CN(C)CC(O)COc1ccc(NC(=O)c2ccc(C(F)(F)F)cc2[N+](=O)[O-])cc1 (centres unmarked) [Compound 6b, N-(4-(3-(Dimethylamino)-2-hydroxypropoxy)phenyl)-2-nitro-4-(trifluoromethyl)benzamide] | 1.7 ± 6
CN(C)CC(O)COc1ccc(Oc2ccc(C(F)(F)F)cc2[N+](=O)[O-])cc1 (centres unmarked) [Compound 6a, 1-(Dimethylamino)-3-(4-(2-nitro-4-(trifluoromethyl)phenoxy)phenoxy)propan-2-ol] | 18.8 ± 4
CN(C)CC(O)COc1ccc(Nc2ccc(C(F)(F)F)cc2C(=O)O)cc1 (centres unmarked) [Compound 10b, 2-((4-(3-(Dimethylamino)-2-hydroxypropoxy)phenyl)amino)-5-(trifluoromethyl)benzoic acid] | -2.1 ± 5.7
O=C(O)c1ccccc1Nc1ccc(OCC(O)CN2CCOCC2)cc1 (centres unmarked) [Compound 10a, 2-((4-(2-Hydroxy-3-morpholinopropoxy)phenyl)amino)benzoic acid] | 5.8 ± 5.3
O=C(Nc1ccc(OCC(O)CN2CCOCC2)cc1)c1ccc(C(F)(F)F)cc1[N+](=O)[O-] (centres unmarked) [Compound 5c, N-(4-(2-Hydroxy-3-morpholinopropoxy)phenyl)-2-nitro-4-(trifluoromethyl)benzamide] | 7.5 ± 3.5
O=[N+]([O-])c1cc(C(F)(F)F)ccc1Nc1ccc(OCCN2CCOCC2)cc1 [Compound 13, N-(4-(2-Morpholinoethoxy)phenyl)-2-nitro-4-(trifluoromethyl)aniline] | 62.4 ± 3.9
CNCC(O)COc1ccc(Nc2ccc(C(F)(F)F)cc2[N+](=O)[O-])cc1 (centres unmarked) [Compound 15, 1-(Methylamino)-3-(4-((2-nitro-4-(trifluoromethyl)phenyl)amino)phenoxy)propan-2-ol] | 66.6 ± 4.3
O=[N+]([O-])c1cc(C(F)(F)F)ccc1Nc1ccc(OCCN2CCCCC2)cc1 [Compound 20, 2-Nitro-N-(4-(2-(piperidin-1-yl)ethoxy)phenyl)-4-(trifluoromethyl)aniline] | 65 ± 6
CN(C)CC(O)COc1ccc(Nc2ccc([N+](=O)[O-])cc2[N+](=O)[O-])cc1 (centres unmarked) [Compound 6d, 1-(Dimethylamino)-3-(4-((2,4-dinitrophenyl)amino)phenoxy)propan-2-ol] | 61.9 ± 9
O=[N+]([O-])c1cc(C(F)(F)F)ccc1Nc1ccc(OCCN2CCCC2)cc1 [Compound 19, 2-Nitro-N-(4-(2-(pyrrolidin-1-yl)ethoxy)phenyl)-4-(trifluoromethyl)aniline] | 68.4 ± 14.8
O=[N+]([O-])c1cc(C(F)(F)F)ccc1Nc1ccc(OCc2ccccc2)cc1 [Compound 14, N-(4-(Benzyloxy)phenyl)-2-nitro-4-(trifluoromethyl)aniline] | 3.3 ± 1.7
O=[N+]([O-])c1cc(C(F)(F)F)ccc1Nc1ccc(OCCN2CCCCCC2)cc1 [Compound 21, N-(4-(2-(Azepan-1-yl)ethoxy)phenyl)-2-nitro-4-(trifluoromethyl)aniline] | 71 ± 4.12

Next, values leading:

inhibition at 10 µM [%] | Compound
81.4 ± 5.6 | CN(C)CCOc1ccc(Nc2ccc(C(F)(F)F)cc2[N+](=O)[O-])cc1 [Compound 18a, N-(4-(2-(Dimethylamino)ethoxy)phenyl)-2-nitro-4-(trifluoromethyl)aniline]
86.2 ± 6.8 | CCN(CC)CCOc1ccc(Nc2ccc(C(F)(F)F)cc2[N+](=O)[O-])cc1 [Compound 17a, N-(4-(2-(Diethylamino)ethoxy)phenyl)-2-nitro-4-(trifluoromethyl)aniline]

Same assay, conditions: HEK293; 50 μM, HEK-293 cells, patch-clamp, mean ± SEM

inhibition at 50 µM [%] | Compound
21.8 ± 4.4 | O=C(Cc1ccc(Cl)c(Cl)c1)NC1CCN(CC(O)COc2ccc(Nc3ccc(C(F)(F)F)cc3[N+](=O)[O-])cc2)CC1 (centres unmarked) [Compound 16d, 2-(3,4-Dichlorophenyl)-N-(1-(2-hydroxy-3-(4-((2-nitro-4-(trifluoromethyl)phenyl)amino)phenoxy)propyl)piperidin-4-yl)acetamide]

Same assay, conditions: whole-cell patch-clamp, dose–response fit

IC50 [nM] | Compound
892 | CN(C)CCOc1ccc(Nc2ccc(C(F)(F)F)cc2[N+](=O)[O-])cc1 [Compound 18a, N-(4-(2-(Dimethylamino)ethoxy)phenyl)-2-nitro-4-(trifluoromethyl)aniline]
216 | CN(C)CCOc1c(Br)cc(Nc2ccc(C(F)(F)F)cc2[N+](=O)[O-])cc1Br [Compound 18b, 3,5-Dibromo-4-(2-(dimethylamino)ethoxy)-N-(2-nitro-4-(trifluoromethyl)phenyl)aniline]
568 | CCN(CC)CCOc1ccc(Nc2ccc(C(F)(F)F)cc2[N+](=O)[O-])cc1 [Compound 17a, N-(4-(2-(Diethylamino)ethoxy)phenyl)-2-nitro-4-(trifluoromethyl)aniline]
